The text below walks through data of article PMC9249808, “A novel lipidic peptide with potential to promote balanced effector-regulatory T cell responses” (Scientific Reports, 2022).

Non-standard residues stand in square brackets, D forms with d. Residues, ends and D or L forms follow the SMILES beside them. Gly(decyl) = CCCCCCCCCC[C@H](N)C(=O)O

One test concerns CD3+ T cell cultures. Description: Cytokine ELISA on supernatants of isolated CD3+ T cell cultures. It counts as cell-based, human. The method, then:
CD3^+ T cells were isolated from PBMCs by negative selection using immune-magnetic separation (Stem cell kits), resuspended in complete medium as used for PBMCs at 0.5 × 10^6/mL and plated at a density of 5 × 10^4 per well (100 µL) in 96-well, flat bottom culture plates. CD4^+ and CD8^+ T cell populations were isolated by immunomagnetic separation and resuspended in RPMI-10 at 0.5 × 10^6/mL with a plating density of 0.5 × 10^5 per well. Either the lipidic peptide, IK14004, or IK14000 ([…]) was added to wells at a final volume of 50 µL per well, together with anti-CD3 anti-CD28 coated Dynabeads (ThermoFisher) at a 4:1 cell:bead ratio (1.25 × 10^4/well, 50 µL volume) and cells cultured for 72 h at 37 °C and 5% CO2.
Supernatants were obtained from PBMC and isolated CD3+ T cells cultures to assess production of IL-2, IL-12p70, IL-10 and IFN-γ (ThermoFisher kits) and IL-12p40 (Biolegend). […] ELISA plates were read at 450 nm using an Infinite F50 (Tecan) absorbance reader and Magellan™ reader control and data analysis software. Flow cytometry data was exported as FCS files from Attune™ NxT software and analysed using FlowJo™ software, from which data were tabulated for export to Microsoft Excel. […]
For flow cytometry and ELISA experiments, data from IK14004 and vehicle groups were analysed using parametric statistical procedures. […]
On the technique in general: In an ELISA, binding on a coated surface is turned into a signal by an enzyme label.

For test [1], the system named is Lck. Conditions: in vitro; read-out: IC50, inhibition of Lck activity; cited from earlier work.
The subject of another test is IL-2 production. As to conditions: cited from earlier work.
In test [2] the test system is Lck. Put plainly: Kinase profiling, Lck. Conditions: Eurofins KinaseProfiler, [γ-33P-ATP] scintillation, 0.003-10 uM, 2% DMSO, no pre-incubation, Fig. 6c, 6e. Type of test: biochemical. The method, then:
(§1) Non-cell-based kinase profiling assays were performed by Eurofins (France). All compounds were prepared to 50 × final assay concentration in 100% DMSO. This working stock of the compound was added to assay wells as the first component in the reaction, followed by the remaining components as detailed in the specific assay protocols below. In the standard KinaseProfiler service, there was no pre-incubation step between the compound and the kinase prior to initiation of the reaction. Control wells contained all components of the reaction, except the compound of interest; however, DMSO (at a final concentration of 2%) was included in these wells to control for solvent effects. […] The reference inhibitors for each kinase are indicated in the methods for each kinase assay. […] Kinase activities were assessed in the presence of compounds at a concentration range of 0.003 -10 uM and the following kinases were tested: c-Src, Lck, Jak1, Jak2, Tyk2, CaMKIV and HPK1 (MAP4K1). Reactions between IK14004, substrates and MgAcetate/[γ^33P-ATP] mixes for each respective kinase were stopped by the addition of phosphoric acid and reaction mixtures spotted on P30 filtermats for scintillation according to the detailed methods available from Eurofins. The activities of Lck and c-Src were also assessed in the presence of the unconjugated components of IK14004, i.e., […] (IK14000) and the dodecanoic acid moiety [(2)Adod]4 (IK00041) and a lipidic peptide containing substituted amino acid residues (IK14DE04).

Another test concerns the target T1, HPK1 (MAP4K1) (Homo sapiens, UniProt Q92918).
T1 construct: purchased Eurofins (France), KinaseProfiler service
Put plainly: Kinase profiling, HPK1. It counts as biochemical. The method, then: as §1, with “(IK14000) and the dodecanoic acid moiety [(2)Adod]4 (IK00041) and a lipidic peptide containing substituted amino acid residues (IK14DE04).” left out

The next test addresses T2, CaMKIV (Homo sapiens, UniProt Q16566).
T2 construct: purchased Eurofins (France), KinaseProfiler service
Description: Kinase profiling, CaMKIV. It counts as biochemical. The procedure: as §1, with “(IK14000) and the dodecanoic acid moiety [(2)Adod]4 (IK00041) and a lipidic peptide containing substituted amino acid residues (IK14DE04).” left out

Another test concerns the target T3, JAK1 (Homo sapiens, UniProt P23458).
T3 construct: purchased Eurofins (France), KinaseProfiler service
Put plainly: Kinase profiling, JAK1. Type of test: biochemical. The method, then:
as §1, with “(IK14000) and the dodecanoic acid moiety [(2)Adod]4 (IK00041) and a lipidic peptide containing substituted amino acid residues (IK14DE04).” left out

The target of the next test is T4, Tyk2 (Homo sapiens, UniProt P29597).
T4 construct: purchased Eurofins (France), KinaseProfiler service
Description: Kinase profiling, Tyk2. Type of test: biochemical. Conditions: non-cell-based, [γ-33P-ATP], 2% DMSO, no pre-incubation, Fig. 6i. The procedure:
as §1, with “(IK14000) and the dodecanoic acid moiety [(2)Adod]4 (IK00041) and a lipidic peptide containing substituted amino acid residues (IK14DE04).” left out

For a further test, the system named is c-Src. Put plainly: Kinase profiling, c-Src. It counts as biochemical. As to conditions: Eurofins KinaseProfiler, [γ-33P-ATP] scintillation, 0.003-10 uM, 2% DMSO, no pre-incubation; Fig. 6d (IK14004 at concentrations below 3 µM), Fig. 6e. The procedure: as §1, with “(IK14000) and the dodecanoic acid moiety [(2)Adod]4 (IK00041) and a lipidic peptide containing substituted amino acid residues (IK14DE04).” left out

The next test has as its system CD40L expression. Conditions: 48 h, in vitro; cited from earlier work. The text has this: An integrated understanding of how IL-2 and TCR co-stimulatory signals combine to control homeostasis in distinct tissue locations is lacking. The effects of IK14004 on cytokine production are shown in the Schematic (Fig. 7) together with putative effects on kinase-mediated signalling pathways involved in production of these cytokines. Maturation of DCs involves CD40L-CD40 interactions dependent upon T helper expression of CD40L[21],[22].

Where [3] appears, read: blank wells, baseline 0% kinase activity remaining.

T1 sequence (Q92918 whole entry): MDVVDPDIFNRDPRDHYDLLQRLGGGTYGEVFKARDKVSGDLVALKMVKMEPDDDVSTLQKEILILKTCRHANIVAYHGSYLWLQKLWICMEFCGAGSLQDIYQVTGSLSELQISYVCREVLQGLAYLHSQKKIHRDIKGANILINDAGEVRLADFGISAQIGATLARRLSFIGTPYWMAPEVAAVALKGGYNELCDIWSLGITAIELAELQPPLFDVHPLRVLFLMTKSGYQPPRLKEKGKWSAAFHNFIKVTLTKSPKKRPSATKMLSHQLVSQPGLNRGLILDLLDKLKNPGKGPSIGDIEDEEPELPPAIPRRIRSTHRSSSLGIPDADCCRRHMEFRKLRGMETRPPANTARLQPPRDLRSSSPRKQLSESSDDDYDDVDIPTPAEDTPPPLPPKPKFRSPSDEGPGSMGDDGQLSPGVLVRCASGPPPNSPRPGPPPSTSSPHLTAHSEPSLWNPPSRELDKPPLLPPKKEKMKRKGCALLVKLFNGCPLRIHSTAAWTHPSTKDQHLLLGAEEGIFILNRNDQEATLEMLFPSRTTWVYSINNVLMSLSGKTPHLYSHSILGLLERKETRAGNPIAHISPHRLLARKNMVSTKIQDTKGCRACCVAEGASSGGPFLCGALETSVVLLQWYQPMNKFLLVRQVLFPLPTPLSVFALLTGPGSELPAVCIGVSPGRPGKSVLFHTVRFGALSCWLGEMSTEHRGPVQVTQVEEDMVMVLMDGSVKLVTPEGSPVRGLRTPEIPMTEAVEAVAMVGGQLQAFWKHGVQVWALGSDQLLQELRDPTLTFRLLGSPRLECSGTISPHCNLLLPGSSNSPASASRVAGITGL
T3 sequence (P23458 whole entry): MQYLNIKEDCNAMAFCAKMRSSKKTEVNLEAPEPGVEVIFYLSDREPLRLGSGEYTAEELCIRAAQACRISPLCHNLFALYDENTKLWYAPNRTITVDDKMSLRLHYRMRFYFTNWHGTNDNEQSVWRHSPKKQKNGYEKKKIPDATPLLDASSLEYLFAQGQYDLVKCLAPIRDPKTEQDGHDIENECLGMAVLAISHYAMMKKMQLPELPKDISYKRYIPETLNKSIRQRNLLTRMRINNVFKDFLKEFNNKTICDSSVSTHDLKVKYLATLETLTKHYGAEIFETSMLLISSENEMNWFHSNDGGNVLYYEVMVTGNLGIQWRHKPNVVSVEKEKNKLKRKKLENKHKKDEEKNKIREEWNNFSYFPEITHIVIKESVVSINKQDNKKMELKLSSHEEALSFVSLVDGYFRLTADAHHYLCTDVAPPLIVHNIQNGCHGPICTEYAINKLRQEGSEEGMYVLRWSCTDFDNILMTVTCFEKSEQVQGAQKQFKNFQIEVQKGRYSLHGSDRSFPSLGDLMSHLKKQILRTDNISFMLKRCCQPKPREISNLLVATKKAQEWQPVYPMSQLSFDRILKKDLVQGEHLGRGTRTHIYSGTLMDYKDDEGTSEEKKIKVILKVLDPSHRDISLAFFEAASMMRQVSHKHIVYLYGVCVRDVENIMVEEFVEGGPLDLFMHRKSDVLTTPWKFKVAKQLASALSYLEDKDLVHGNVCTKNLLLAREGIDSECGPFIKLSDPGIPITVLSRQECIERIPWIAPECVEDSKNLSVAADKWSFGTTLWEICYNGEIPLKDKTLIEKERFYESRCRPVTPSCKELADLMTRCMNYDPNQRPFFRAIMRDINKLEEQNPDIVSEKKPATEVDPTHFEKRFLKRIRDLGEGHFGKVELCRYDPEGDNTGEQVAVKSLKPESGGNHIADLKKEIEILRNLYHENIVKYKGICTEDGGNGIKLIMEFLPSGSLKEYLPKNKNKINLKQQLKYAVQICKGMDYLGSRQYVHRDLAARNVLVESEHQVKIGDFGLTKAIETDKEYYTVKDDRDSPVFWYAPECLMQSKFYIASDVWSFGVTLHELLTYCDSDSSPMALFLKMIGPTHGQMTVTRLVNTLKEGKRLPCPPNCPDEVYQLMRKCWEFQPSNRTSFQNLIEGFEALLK
T4 sequence (P29597 whole entry): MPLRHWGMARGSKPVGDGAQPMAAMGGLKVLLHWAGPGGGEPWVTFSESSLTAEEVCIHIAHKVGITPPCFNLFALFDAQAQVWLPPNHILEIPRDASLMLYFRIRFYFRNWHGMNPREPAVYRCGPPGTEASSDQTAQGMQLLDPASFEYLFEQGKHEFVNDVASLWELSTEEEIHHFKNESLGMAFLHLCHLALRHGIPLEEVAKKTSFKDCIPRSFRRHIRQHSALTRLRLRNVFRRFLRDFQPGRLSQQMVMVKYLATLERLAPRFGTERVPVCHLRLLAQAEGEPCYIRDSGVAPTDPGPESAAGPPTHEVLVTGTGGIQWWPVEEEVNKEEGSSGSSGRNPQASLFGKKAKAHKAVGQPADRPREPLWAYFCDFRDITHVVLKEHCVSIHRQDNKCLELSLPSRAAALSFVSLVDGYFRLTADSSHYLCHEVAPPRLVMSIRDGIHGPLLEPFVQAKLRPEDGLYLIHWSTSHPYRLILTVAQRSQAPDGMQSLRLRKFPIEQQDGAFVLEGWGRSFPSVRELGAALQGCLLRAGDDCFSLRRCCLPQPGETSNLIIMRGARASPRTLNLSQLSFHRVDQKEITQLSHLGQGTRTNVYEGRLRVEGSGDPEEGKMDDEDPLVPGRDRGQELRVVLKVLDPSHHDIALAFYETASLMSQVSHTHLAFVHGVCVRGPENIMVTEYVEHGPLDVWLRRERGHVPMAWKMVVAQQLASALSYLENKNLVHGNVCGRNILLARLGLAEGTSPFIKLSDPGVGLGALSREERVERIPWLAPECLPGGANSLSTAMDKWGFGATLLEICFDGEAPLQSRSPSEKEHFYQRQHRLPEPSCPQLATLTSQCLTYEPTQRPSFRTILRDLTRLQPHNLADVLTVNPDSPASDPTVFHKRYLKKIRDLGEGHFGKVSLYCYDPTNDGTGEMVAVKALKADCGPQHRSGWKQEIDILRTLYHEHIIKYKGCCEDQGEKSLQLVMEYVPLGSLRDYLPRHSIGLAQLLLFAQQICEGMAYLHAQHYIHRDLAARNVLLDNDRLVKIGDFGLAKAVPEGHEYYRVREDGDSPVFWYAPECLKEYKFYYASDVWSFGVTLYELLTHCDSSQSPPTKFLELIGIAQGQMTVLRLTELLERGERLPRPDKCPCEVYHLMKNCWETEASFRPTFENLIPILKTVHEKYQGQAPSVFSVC

As a reminder, the IC50 is the concentration needed to halve the response being measured. In the case of `COc1cc(-c2nn([C@H]3CC[C@H](N4CCN(C(C)=O)CC4)CC3)c3ncnc(N)c23)ccc1NC(=O)c1cc2ccccc2n1C` [A-770041], the “IL-2 in supernatant of CD3+ T cell cultures, A-770041” value in the test with CD3+ T cell cultures (0.1 µM in 0.1% DMSO, anti-CD3/anti-CD28, 72 h, ELISA, 7 experimental replicates, paired t-test **P < 0.01, Fig. 6a) is on record as “induced IL-2 production”. Moreover, in the test on CD3+ T cell cultures (A-770041 0.1 µM versus IK14004 (0.16 uM), 72 h, Fig. 6a vs 1f), the “IL-2 level relative to IK14004” value is on record as “much greater level than in the presence of IK14004”. The IC50 is 147 nM in the test with Lck [1] and 80 nM with IL-2 production (read-out: IC50, inhibition of IL-2 production, in vitro). Besides, in the test on IL-2 production (heparinised whole blood exposed to anti-CD3 plus PMA, ref Stachlewitz and colleagues [66]), the “IL-2 production, whole blood” value is “inhibition of IL-2 production”.
Turning to [(2)Adod]4 [IK00041], the Lck activity entry in the test with Lck [2] is “neither IK14000 nor IK00041 had an effect”.
Consider `CCCCCCCCCC[C@H](NC(=O)[C@H](CCCCCCCCCC)NC(=O)[C@H](CCCCCCCCCC)NC(=O)[C@H](CCCCCCCCCC)NC(=O)[C@H](CCCNC(=N)N)NC(=O)[C@H](Cc1ccc(O)cc1)NC(=O)[C@H](CC(C)C)NC(=O)[C@@H]1CCCN1C(=O)[C@H](CC(N)=O)NC(=O)[C@H](CCCCN)NC(=O)[C@H](C)NC(=O)[C@H](CCCCN)NC(=O)[C@H](CO)NC(=O)[C@@H](N)CCCNC(=N)N)C(N)=O` [IK14004] (H-RSKAKNPLYR[Gly(decyl)][Gly(decyl)][Gly(decyl)][Gly(decyl)]-NH2), for which the IC50 is approximately 1000 nM against HPK1 (MAP4K1) (non-cell-based, [γ-33P-ATP], 2% DMSO, no pre-incubation, Fig. 6f); 3000 nM on CaMKIV (non-cell-based, [γ-33P-ATP], 2% DMSO, no pre-incubation, Fig. 6h); 3000 nM on JAK1 (non-cell-based, [γ-33P-ATP], 2% DMSO, no pre-incubation, Fig. 6i); 1000 nM at Tyk2.
For the molecule `CN[C@@H]1C[C@H]2O[C@@](C)([C@@H]1OC)n1c3ccccc3c3c4c(c5c6ccccc6n2c5c31)C(=O)NC4` [staurosporine, reference compound], the “HPK1 activity, reference inhibitor” value on HPK1 (MAP4K1) (setting [3]) is reported as “abolished kinase activity”. For the same molecule, at CaMKIV (setting [3]), the “CaMKIV activity, reference inhibitor” value is reported as “abolished kinase activity”. Further, the “JAK1 activity, reference inhibitor” value on JAK1 (setting [3]) is “abolished kinase activity”.
Regarding DSEAENPLYD [IK14DE04], the Lck activity result with Lck [2] is “abolished the effects of IK14004”. The c-Src activity result in the test with c-Src was “abolished the effects of IK14004”.

B1: daclizumab: a humanised anti-CD25 mAb (antibody, chains of the INN, looked up, V domains shown)
VH: QVQLVQSGAEVKKPGSSVKVSCKASGYTFTSYRMHWVRQAPGQGLEWIGYINPSTGYTEYNQKFKDKATITADESTNTAYMELSSLRSEDTAVYYCARGGGVFDYWGQGTLVTVSS
VL: DIQMTQSPSTLSASVGDRVTITCSASSSISYMHWYQQKPGKAPKLLIYTTSNLASGVPARFSGSGSGTEFTLTISSLQPDDFATYYCHQRSTYPLTFGQGTKVEVK
Consider B1, for which the “CD40L expression at later time points” value in the test with CD40L expression was “inhibitable”.
